The subject of experiment [1] is beta1-ECII receptor antibody-titers. Nature of the experiment: in vivo therapy study cyc22AA versus cyc18AA Cys/Ser in rats immunized over 8 months: antibody-titers. Details: species or system rat. The conditions noted are these: injections every 4 weeks, start at month 8; mean ±SEM (FIG. 28A). From the text:
FIGS. 28A and B depict the in vivo blocking (=neutralization) capacity of two cysteine-containing 18AA or 22AA cyclopeptide-mutants of the second extracellular loop (ECII) of the human beta1-adrenergic receptor upon therapeutic injection of the different constructs into rats regularly immunized since 8 months (first=basic immunization followed by 7 antigen-boosts every 4 weeks). The effects of four to five subsequent cyclopeptide-injections every 4 weeks are shown. FIG. 28A depicts the mean values±SEM of each of the treated groups of immunized beta1-ECII-antibody positive cardiomyopathic rats (animal number per group is given in the legend). […] The remaining receptor antibody-titers after each injection in % of the antibody-titers at start therapy (month 8) are depicted (columns). Error bars indicate ±SEM. Numbers in columns indicate the number of (subsequent) monthly injection.
FIG. 28B depicts the time course of antibody-titers after 4 subsequent cyclopeptide-injections, determined before and 20-22 hours after application of the indicated constructs. Values are given in percent of increase or decrease in the respective antibody-titers after each cyclopeptide-injection compared with the antibody-titer determined at start of therapy (month 8). […]

Experiment [2] relates to immunized beta1-ECII-antibody positive cardiomyopathic rats. Nature of the experiment: echocardiographic follow-up of the cyc22AA versus cyc18AA therapy study. Type of experiment: in vivo, rat. The conditions noted are these: after 4 months of treatment, 1.0 mg/kg Bw (FIG. 29). The text has this: FIG. 29A is a diagram showing the time course (month 0 to 12) of the internal end-systolic and end-diastolic left ventricular diameters (LVES, LVED) of GST/beta1-ECII-immunized untreated (black circles) versus GST/beta1-ECII-immunized animals treated with the indicated various cyclopeptides (see legend) as determined by 2D- and M-mode echocardiography (echocardiographic system: Visual Sonics, Vevo 770 (version V2.2.3), equipped with a 15-17.5 MHz transducer), whereby LVES/LVED is left ventricular end-systolic diameter/left ventricular end-diastolic diameter.
FIG. 29B is a diagram depicting the time course (month 0 to 12) of the “Cardiac index” (CI) in ml/min/g (body weight) as determined by 2D- and Doppler-echocardiography (echocardiographic system see above).
In addition, echocardiographic follow-up data after 4 months of treatment also show a superiority of cyc22AA mutants compared with the cyc18AA Cys/Ser mutant regarding their cardioprotective effects in vivo, as assessed by the decrease in both left ventricular end-diastolic (LVED) and end-systolic (LVES) diameters (FIG. 29A), and an increase in “Cardiac Index” (CI, given in ml/min/g body weight; see FIG. 29B), as determined by 2 dimensional- and Doppler-echocardiography using a Visual Sonics echocardiographic system (Vevo 770, version V2.2.3), equipped with a 17.5 MHz transducer).

The test system of a further experiment is anti-β1-ECII antibodies. Briefly: ELISA-competition assay: peptide preincubated with sera/IgG of immunized antibody-positive rats, linear 25AA Cys/Cys-peptide as antigen. The following applies: for blocking-efficiency versus unblocked sera: n=6 sera, incubation 12-14 h, mean ±SEM (FIG. 27). More on the design: blocking capacity (% of blocked versus non-blocked ELISA-reactivity): concentration or dose not given beside the values. Type of experiment: binding, rat. On the procedure:
FIG. 9 is a diagram composed of two major-(upper and lower) panels resuming the blocking effect of both 25AA- and 18AA-cyclopeptide mutants having a Gln closure site, as well as 18AA cyclopeptide mutants having a D-Glu closure site after preincubation (12 h, 4° C., rotating incubation) with sera isolated from 69 different immunized antibody-positive rats in an ELISA-competition assay using the 3 Cys-containing linear 25AA Cys/Cys-peptide as an antigen. The upper panel depicts rat sera preferentially reacting with the Cys/Ser mutated cyclopeptides (type1 reaction, n=64), separated in cyc25AA(Gln)-peptides (left) and cyc18AA(Gln and D-Glu)-peptides (right). The lower panel depicts the rat sera reacting with both the Cys/Ser and the Ser/Cys mutated cyclopeptides (type2 reaction, n=5), again separated in the results obtained with cyc25AA(Gln)-peptides (left) and cyc18AA(Gln and D-Glu)-peptides (right).
FIG. 11 is a diagram resuming the dose-dependent (x-axis, abscissa: fold molar excess of specific peptides) blocking capacity of various linear and cyclic beta1-ECII-peptides given in % of the unblocked antibody-titer (y-axis, ordinate), including 25AA Cys/Cys linear peptides (black squares), 25AA Cys/Ser cyclopeptide mutants (white squares), 18AA Cys/Cys cyclo-peptides (black diamonds), 18AA Cys/Ser cyclopeptide mutants (white diamonds), and 18AA Cys/Ser linear peptide mutants (vertically hatched diamonds) in an ELISA competition assay performed with sera from n=6 randomly chosen immunized antibody-positive rats.
FIGS. 27A and B depict the in vitro blocking (=neutralization) capacity of various cysteine-containing cyclopeptide variants of the second extracellular loop (ECII) of the human beta1-adrenergic receptor, determined by testing n=6 individual sera (27A) of immunized beta1-ECII-antibody-positive rats after over-night incubation with the indicated cyclopeptides (12-14 h, 4° C.) by ELISA. Columns in 27A represent the receptor-antibody blocking efficiency of the indicated cyclopeptides in % of the antibody-(ELISA-)signals obtained with unblocked antibody-positive rat sera. Columns in 27B represent the mean blocking efficiency for each cyclopeptide, error bars indicate ±SEM.
The blocking capacity of β1-ECII-18AA cyclopeptide mutants (Cys13-Ser14 or Ser13-Cys14 mutation having an additional D-Glu-Gln exchange, e.g. at the ring closure site) was compared with the 3 Cys-containing 25AA or 18AA Cys/Cys cyclopeptides after preincubation (12 h, 4° C., rotating incubation over-night) of different numbers of sera from immunized antibody-positive rats in an ELISA-competition assay using the 3 Cys-containing linear 25AA Cys/Cys-peptide as an antigen. FIGS. 4, 5, and 7-10 show the results from measurements performed with sera of n=12 up to n=82 immunized antibody-positive rats using different cyclopeptides of the present invention.

The subject of experiment [3] is anti-beta1-ECII antibody-secreting cells (ASC). Nature of the experiment: ELISPOT-assay with B-cells from bone marrow or spleen of prophylactically treated rats. Type of experiment: in vivo, rat. The following applies: prophylactically treated versus untreated immunized rats, n=3-4 (FIG. 13). The protocol:
Cys/Ser, horizontally hatched columns). For the assays, ELIspot plates were coated overnight with the specific antigen (GST/beta1-ECII-FP) in 0.05 mol/1 Tris buffer, pH 9.4.; then the plates were washed 3 times and blocked with BSA for 3 hours at 37° C. Subsequently, the plates were incubated overnight at 37° C. with B-cells from either spleen or bone marrow (cultured in RPMI 1640/X-VIVO-15 medium supplemented with 10% fetal calf serum (FCS)) with 1×10^6 to 1×10^3 cells per well. After 12 hours the B-cells were discarded and the plates with the B-cell secreted IgG bound were washed several times (PBS/0.5° A) Tween) before the addition of alkaline phos-phatase conjugated secondary anti-rat IgG (0.3 μg/ml) to detect bound rat IgG. Then the plates were incubated for another 3 hours at 37° C., washed several times with PBS/0.5% Tween, and developed using LMP/BICP 5:1 (1 ml per well; “LMP” means low melting agarose, and “BICP” means 5-bromo-4-chloro-3-indolyl phosphate p-toluidine salt, a blue-colored dye) allowing for a quantification of the blue spots obtained, with each spot representing an antigen-specific IgG secreting spleen or bone-marrow cell.
This finding was confirmed by ELIspot analysis of bone marrow and spleen cell preparations of selected cyclopeptide-treated versus untreated immunized rats (n=3).

The test system of experiment [4] is beta1-receptor antibodies. Briefly: in vivo prevention study: five prophylactic peptide applications, serum antibody-titers by ELISA. Details: species or system rat. The following applies: 1.0 mg/kg body weight i.v., 4-weekly, prevention protocol (FIG. 12). On the procedure: FIG. 12 is a diagram resuming the in vivo blocking capacity of in total five (prophylatic) applications of various linear and cyclic beta1-ECII-peptides, started 3 months after the first immunization (and two subsequent beta1-ECII/GST-antigen-boosts, corresponding to a prevention protocol). Serum-titers of the beta1-receptor antibodies were determined before and 18-20 h after each peptide injection (abscissa, time in months) and are given in % of the corresponding antibody-titers of immunized untreated rats (y-axis, ordinate). The injected peptides were: 25AA Cys/Cys linear peptide (black squares), […] (white squares), 18AA Cys/Cys cyclopeptide (black diamond), 18AA Cys/Ser cyclopeptide mutant (white diamonds), and the 18AA Cys/Ser linear peptide mutant (vertically hatched diamonds). […] Black circles indicate antibody-titers of untreated regularly (every 4 weeks) immunized animals serving as reference, set at 100%.
The in-vivo blocking effects of both 25AA and 18AA Cys/Ser mutant cyclopeptides (with a Gln closure site), the 18AA Ser/Cys mutant cyclopeptide, and a mutated linear 18AA Cys/Ser peptide were analyzed after intravenous (i.v.) injection of 1.0 mg/kg body weight (Bw) of each construct into freshly immunized antibody-positive rats (i.e., use of cyclo-peptides in a kind of “prevention” study), with a first cyclopeptide-application 3 months after the initial immunization (and two subsequent boost at months 2 and 3). In total, five prophylactic applications of the various constructs were given at 4-weekly intervals, always two weeks after the monthly continued antigen boost. Sera were drawn 18-20 hours after i.v. injection and assayed for reactivity by ELISA using the 3 Cys-containing linear 25AA Cys/Cys-peptide as an antigen (FIG. 12).

Results on two substances are retold here after patent publication US9062095B2, “Mutant double cyclized receptor peptides inhibiting β1-adrenoceptor antibodies” (JULIUS-MAXIMILIANS-UNIVERSTITAT-WURZBURG, priority 2007, dated 2015).

Positions of bridges follow the written chain, without caps; N, C: chain ends.

In the case of “Cyclo-Arg-Ala-Glu-Ser-Asp-Glu-Ala-Arg-Arg-Cys-Tyr-Asn-Asp-Pro-Lys-Cys-Ser-Asp-Phe-Val-Thr-Gly (cyclo(RAESDEARRCYNDPKCSDFVTG); disulfide 10-16 (inferred)) [cyc22AA Cys/Ser]”, the “antibody-titer remaining after 4 injections in percent of the titer at start of therapy” value in experiment [1] is 9.0±2.2%. Also, the “cardioprotective effects in vivo (decrease in LVED and LVES diameters, increase in Cardiac Index)” value in experiment [2] is recorded as “superiority”. Also, the “blocking-efficiency versus unblocked sera” value in the experiment with anti-β1-ECII antibodies (4° C.) is given as 74.9±5.0%.
On to “25AA Cys/Cys cyclopeptides: 3 Cys-containing β1-ECII-25AA Cys/Cys cyclopeptide (β1-ECII-CP of WO 2006/103101) (cyclo(ARAESDEARRCYNDPKCCDFVTNRQ); disulfide (positions not given here)) [reference compound]”, for which the “number of specific anti-beta1-ECII antibody-secreting cells (ASC) in spleen and bone marrow” value in experiment [3] is recorded as “significant decrease”. The “antibody-titer decrease after 5 injections, compared with untreated immunized animals” value in experiment [4] came to 87.7±2%. The “blocking capacity (% of blocked versus non-blocked ELISA-reactivity)” value with anti-β1-ECII antibodies (IgG from n=78 immunized antibody-positive rats, preincubation 12 h, 4° C., mutants with D-Glu ring closure (FIG. 7), ±SEM) was determined as 67±2%. Moreover, the “blocking-efficiency versus unblocked sera” value with anti-β1-ECII antibodies (4° C.) turned out to be 73.4±5.0%. The “blocking efficiency (% of blocked versus non-blocked ELISA reactivity)” value in the experiment on anti-β1-ECII antibodies (type1 sera (93%, n=64 of 69), FIG. 9 upper panel, ±SEM) came out at 65±2%. For the same substance, the “blocking capacity (% of blocked versus non-blocked ELISA reactivity)” value with anti-β1-ECII antibodies (type 2 sera (7%, n=5 of 69), FIG. 9 lower panel, ±SEM) turned out to be 72±5%.
